{
  "source": "patent US20140315786A1",
  "about": "“USE OF INTRACELLULAR ENZYMES FOR THE RELEASE OF COVALENTLY LINKED BIOACTIVES” (Catabasis Pharmaceuticals, Inc., priority 2011, published 2014)",
  "key": {"LTB4": {"tested_on": "LTB4", "experiment": "LTB4 assay (HTRF) in differentiated HL-60 cells stimulated with A23187", "assay_type": "cell-based", "details": "Homo sapiens, linked bioactive", "method": "The LTB4 assay was conducted using a commercial kit (CISBIO, Bedford, Mass.) in HL-60 cells. HL-60 cells were maintained in IMEM supplemented with 20% serum in 37° C. in 5% CO2. Media was changed 2 times a week and cells kept at a density of 2×10^5 to 1×10^6 cells/ml.\nBefore the experiment cell culture media was changed to 10% serum and HL-60 cells were differentiated for 3 days in 1.3% DMSO. On day 3 cells were concentrated 2 times in the DMSO containing media and 1 ml cell suspension/well plated in 24-well plates. BSA controls or CAT compounds prepared in 1% BSA from an ethanol or DMSO stock solution were added to the wells and the cell were incubated for 21 hours. Next day, cells were transferred to Eppendorf tubes centrifuged at 300×g and rinsed once in DPBS. Cells were re-suspended in 300 μl DPBS containing 2% FBS (assay buffer), and 80 μl/well was plated in 96-well plates (black sides, clear bottom). Some cells were pre-incubated with 10 μM NDGA, a LOX inhibitor. To initiated LTB4 secretion, cells were stimulated with the calcium ionophore A23187 (5 μM) for 15 min. […] LTB4 content in the supernatant was assessed by a homogeneous time resolved fluorescence (HTRF) LTB4 assay from CISBIO, in a 384-well plate format. […] Cell viability was determined in the 96-well plate by CellTiter-Glo (Promega, Madison, Wis.)."}, "[1]": {"biological_target": "T1, human recombinant MAG-lipase (Homo sapiens, UniProt Q99685)", "T1 construct": "purchased Cayman 705192", "T1 sequence (Q99685 1-303)": "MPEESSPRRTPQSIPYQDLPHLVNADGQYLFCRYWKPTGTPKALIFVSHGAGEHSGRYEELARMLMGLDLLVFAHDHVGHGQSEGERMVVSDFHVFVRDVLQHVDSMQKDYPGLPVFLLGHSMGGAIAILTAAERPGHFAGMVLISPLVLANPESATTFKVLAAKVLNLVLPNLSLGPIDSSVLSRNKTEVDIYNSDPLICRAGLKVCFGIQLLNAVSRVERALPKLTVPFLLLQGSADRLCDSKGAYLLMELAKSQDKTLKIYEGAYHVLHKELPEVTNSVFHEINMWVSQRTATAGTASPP", "experiment": "Hydrolysis with human recombinant monoacylglycerol lipase, with and without MAGL inhibitor", "assay_type": "biochemical", "details": "FIG. 8", "method": "Hydrolysis experiment involving Monoacylglycerol lipase (MAGL) with and without a MAGL inhibitor. A commercially available Monoacylglycerol (MAGL) kit from Cayman (Cat #705192) was used for the hydrolysis experiment. The hydrolysis was carried out in Eppendorf tubes by adding together 300 μL of a 10 mM Tris-HCl buffer (pH 7.2, 1 mM EDTA), 20 μL of DMSO, and 20 μL of the human recombinant MAG-lipase. […] The Eppendorf tubes were gently inverted to mix the components and then placed in a 37° C. incubator. A 25 μl, sample was withdrawn at each of the following time points: 0, 5, 10, 15, and 30 min. […] In a separate experiment, the hydrolysis was then repeated in the presence of a MAGL inhibitor (compound JZL184, supplied with the commercially available MAGL kit). Eppendorf tubes were charged with 300 μL of a 10 mM Tris-HCl buffer (pH 7.2, 1 mM EDTA), 20 μL of a […] solution of JZL184 in DMSO in order to make a 5 μM final concentration, and 20 μL of the human recombinant MAG-lipase. […] The Eppendorf tubes were gently inverted to mix the components and then placed in a 37° C. incubator."}, "NFκB": {"tested_on": "NFκB", "experiment": "NFκB-driven luciferase reporter assay in LPS-challenged RAW 264.7 macrophages", "assay_type": "cell-based", "details": "Mus musculus, RAW264.7; RAW 264.7, LPS 200 ng/mL; linked bioactive; read-out: IC50 in an NFkB assay", "method": "RAW 264.7 cells transfected with an NFκB-driven luciferase reporter were plated in 96 well plates. Cells were treated with Vehicle (0.1% ethanol) or test compounds for 2 hours. As a positive control for inhibition of NFκB signaling, 6 wells were treated with […]. Cells were then challenged with 200 ng/mL LPS for 3 hours in the presence of test compounds. A subset of wells treated with vehicle remained unstimulated with LPS to determine the floor signal of the assay. NFκB driven luciferase activity was developed by addition of BriteLite luciferase kit (PERKIN ELMER®) and measured using a Victor V plate reader. NFκB activity (luciferase activity) for each treatment was normalized to Vehicle wells treated with LPS (% NFκB Response)."}, "[2]": {"experiment": "Sprague Dawley rat brain homogenate promoted cleavage of a linked bioactive, with and without FAAH inhibitor URB597", "assay_type": "in vitro ADME", "details": "FIG. 1; 5 μM inhibitor", "method": "The purpose of this assay was to measure the ability of Sprague Dawley rat brain homogenate to hydrolyze a linked bioactive in the presence of fatty acid amide hydrolase inhibitor URB597 (obtained from Cayman Chemical, cat #10046. Brains were harvested from male Sprague Dawley rats and were homogenized 1:4 (grams:mL) in 20 mM 4-(2-hydroxyethyl)-1-piperazineethanesulfonic acid, pH 7.0. Total protein in the rat brain homogenate was determined by a Bradford protein assay.\nLinked bioactive was dissolved in methanol at 50 mM. Hydrolysis reactions were conducted with 500 μM of compound in a reaction buffer of 50 mM Hcpcs, 1 mM EDTA, 0.1% Triton X100, pH 8.0, and 1 mg/mL total protein from rat brain homogenate. Reactions were incubated at 37° C. The total reaction volume was 500 μL. Reactions were quenched by transferring 30 μL of reaction into 200 μL of acetonitrile containing 100 ng/mL of internal standard compound, after 0 hours, 1 hour, 2 hours, and 3 hours. […]\nGenerally, levels of parent linked bioactive and hydrolysis products were measured using an Agilent 1260 HPLC and an Agilent 6410 triple quadrapole mass spectrometer with an electrospray source and using multiple reaction monitoring and relevant mass/charge transitions. […] Injection volumes and flow rates were determined for each specific parent linked bioactive and relative hydrolysis products. […]"}, "FAAH-1": {"biological_target": "T2, FAAH-1 (Homo sapiens, UniProt O00519)", "T2 construct": "expressed in transfected cells; host or cells: COS-7", "T2 sequence (O00519 1-579)": "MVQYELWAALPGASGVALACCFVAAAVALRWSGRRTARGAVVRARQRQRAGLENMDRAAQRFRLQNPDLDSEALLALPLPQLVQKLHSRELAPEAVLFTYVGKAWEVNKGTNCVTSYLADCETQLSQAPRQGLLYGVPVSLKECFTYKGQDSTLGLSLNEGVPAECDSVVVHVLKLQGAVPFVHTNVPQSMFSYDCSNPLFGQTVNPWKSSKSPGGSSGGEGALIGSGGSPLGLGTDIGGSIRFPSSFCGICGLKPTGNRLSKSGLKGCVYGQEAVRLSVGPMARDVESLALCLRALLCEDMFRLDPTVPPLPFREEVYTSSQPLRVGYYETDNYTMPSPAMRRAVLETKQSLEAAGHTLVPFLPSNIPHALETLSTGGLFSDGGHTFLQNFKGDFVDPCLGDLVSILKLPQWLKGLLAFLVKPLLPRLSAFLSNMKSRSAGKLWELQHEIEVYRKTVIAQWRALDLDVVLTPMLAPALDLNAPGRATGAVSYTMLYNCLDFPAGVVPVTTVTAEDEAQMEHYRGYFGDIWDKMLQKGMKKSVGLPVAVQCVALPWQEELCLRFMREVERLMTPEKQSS", "experiment": "Hydrolysis in homogenate of COS-7 cells overexpressed with FAAH-1", "assay_type": "biochemical", "details": "5 μM inhibitor", "method": "(§1) Hydrolysis experiments using COS-7 cells overexpressed with either FAAH-1 or FAAH-2. […] The next day, cells were transfected, in duplicate, with 10 μg Vector control, flag-FAAH-1 or flag-FAAH-2 plasmids using Lipofectamine 2000 (Invitrogen) according to the manufacturer's protocol. 24 hours post transfection, cells were washed 1× in cold PBS, aspirated dry, and then scraped off the plate in the presence of 0.6 mL reaction buffer (50 mM HEPES, pH 9.0; 1 mM EDTA). Cells were then homogenated using a VWR VDI 12 Adaptable Homogenizer, on ice for 1 minute, and the sample was then clarified by centrifugation at 6,000 g for 5 minutes. The supernatant of this homogenated fraction was then used for FAAH hydrolysis assays. […] Gel densitometry was performed and the % FAAH extracted in each successive lysis conditions was determined according to standard procedures.\n(§2) The following hydrolysis experiments were performed using COS-7 cells containing overexpressed FAAH-1 or FAAH-2. […] Briefly, the hydrolysis experiments were carried out in Eppendorf tubes using procedures similar to the one described above. […] At time=0, 1, and 3 h, the protein was precipitated with acetonitrile."}, "FAAH-2": {"biological_target": "T3, FAAH-2 (Homo sapiens, UniProt Q6GMR7)", "T3 construct": "expressed in transfected cells; host or cells: COS-7", "T3 sequence (Q6GMR7 1-532)": "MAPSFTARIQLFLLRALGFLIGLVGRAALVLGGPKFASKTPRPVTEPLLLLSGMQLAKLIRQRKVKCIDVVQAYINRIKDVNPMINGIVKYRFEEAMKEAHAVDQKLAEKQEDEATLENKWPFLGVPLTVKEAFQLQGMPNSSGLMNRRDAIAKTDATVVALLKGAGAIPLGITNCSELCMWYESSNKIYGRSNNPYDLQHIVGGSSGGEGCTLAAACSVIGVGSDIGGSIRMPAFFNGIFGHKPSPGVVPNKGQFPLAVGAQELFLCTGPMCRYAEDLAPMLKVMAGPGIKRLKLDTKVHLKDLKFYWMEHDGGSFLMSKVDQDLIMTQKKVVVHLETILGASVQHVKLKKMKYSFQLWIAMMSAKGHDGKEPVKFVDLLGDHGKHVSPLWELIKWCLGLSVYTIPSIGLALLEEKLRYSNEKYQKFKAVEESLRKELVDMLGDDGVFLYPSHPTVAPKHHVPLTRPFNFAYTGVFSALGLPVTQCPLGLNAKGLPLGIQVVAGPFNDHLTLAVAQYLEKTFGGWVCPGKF", "experiment": "Hydrolysis in homogenate of COS-7 cells overexpressed with FAAH-2", "assay_type": "biochemical", "details": "5 μM inhibitor", "method": "as §1, §2"}},
  "data": [
    {"smiles": "CC/C=C\\C/C=C\\C/C=C\\C/C=C\\C/C=C\\C/C=C\\CCC(=O)NCCNC(=O)C(C)c1ccc(CC(C)C)cc1", "note": "(stereo not shown) [VIIa-1, (4Z,7Z,10Z,13Z,16Z,19Z)-N-(2-(2-(4-isobutylphenyl)propanamido)ethyl)docosa-4,7,10,13,16,19-hexaenamide]", "values": [
      {"measurement": "IC50", "setting": "LTB4", "result": 2.2, "unit": "µM"}
    ]},
    {"smiles": "O=C(Oc1ccc([N+](=O)[O-])cc1)N1CCC(C(O)(c2ccc3c(c2)OCO3)c2ccc3c(c2)OCO3)CC1", "note": "[JZL184, reference compound]", "values": [
      {"measurement": "effect of MAGL inhibitor on rate of hydrolysis of compound II-1", "setting": "[1]; 5 μM inhibitor", "result": "reduced significantly"}
    ]},
    {"smiles": "CC/C=C\\C/C=C\\C/C=C\\C/C=C\\C/C=C\\C/C=C\\CCC(=O)Nc1ccc(O)c(C(=O)O)c1", "note": "[II-1, 5-(4Z,7Z,10Z,13Z,16Z,19Z)-docosa-4,7,10,13,16,19-hexaenamido-2-hydroxybenzoic acid]", "values": [
      {"measurement": "IC50", "setting": "NFκB", "result": "40 to 50", "unit": "µM"},
      {"measurement": "hydrolysis using human recombinant MAG-lipase (remaining compound)", "setting": "[1]; 5 μM final concentration, 37° C., 0-30 min, no inhibitor", "result": "time-dependent hydrolysis"}
    ]},
    {"smiles": "NC(=O)c1cccc(-c2cccc(OC(=O)NC3CCCCC3)c2)c1", "note": "[URB597]", "values": [
      {"measurement": "effect of FAAH inhibitor on hydrolysis of the linked bioactive by rat brain homogenate", "setting": "[2]", "result": "essentially eliminated"},
      {"measurement": "effect of inhibitor on rate of hydrolysis of compound I-1, FAAH-1", "setting": "FAAH-1; FIG. 9A", "result": "significantly reduced"},
      {"measurement": "effect of inhibitor on rate of formation of DHA from compound I-1, FAAH-1", "setting": "FAAH-1; FIG. 9C", "result": "significantly inhibited"},
      {"measurement": "effect of inhibitor on hydrolysis of compound I-1, FAAH-2", "setting": "FAAH-2; FIG. 9B", "result": "significantly reduced"},
      {"measurement": "effect of inhibitor on formation of DHA from compound I-1, FAAH-2", "setting": "FAAH-2; FIG. 9D", "result": "more effective in reducing the formation of DHA"}
    ]},
    {"smiles": "CC/C=C\\C/C=C\\C/C=C\\C/C=C\\C/C=C\\C/C=C\\CCC(=O)N[C@@H](CCCCNC(=O)C(C)c1ccc(CC(C)C)cc1)C(=O)O", "note": "(stereo partly drawn) [VIIa-2, (2S)-2-((4Z,7Z,10Z,13Z,16Z,19Z)-docosa-4,7,10,13,16,19-hexaenamido)-6-(2-(4-isobutylphenyl)propanamido)hexanoic acid]", "values": [
      {"measurement": "IC50", "setting": "LTB4", "result": 1.6, "unit": "µM"}
    ]}
  ]
}
